Data: US20220400680A1, “USE OF ACYLCYANAMIDES OR SALTS THEREOF FOR REGULATING PLANT GROWTH” (Alzchem Trostberg GmbH, priority 2019, published 2022)

How the values were obtained:
[1] = tested on: Table apple, type Boiken apple (C1); experiment: Greenhouse test, cut apple branches C1 dipped in test solution, bud development stage; type: in vivo, Malus domestica; parameters: key to Bud development stage, apple branches C1: Stage 0: Buds unchanged; Stage 1: Buds slightly swollen, first green tips visible; Stage 2: strongly swollen, green buds; Stage 3: Buds before breaking open, leaf or flower root already visible; Stage 4: Flower buds fully developed, but still closed, white petals already visible. In the case of the grapevine, stage 4 was the unfolding of the first leaves; Stage 5: Flowers fully open or, in the case of grapevine, unfolding of the flower roots (“Gescheine”) on the fully leafed sprouts; conditions: for Dormancy-breaking effect according to the definition, apple C1: stage 4 reached or exceeded after 36 days vs negative control
Description: Greenhouse tests were conducted using cut fruit tree branches placed in water jars and maintained under controlled conditions with temperature regulation at approximately 22° C. and natural lighting. C1: Table Apple, Type Boiken Apple Table apple: Malus domestica type Boiken first described in 1828 in Bremen after Deichvogt Boiken. Apple type for rough locations and for almost every soil suitable scattered fruit type, whereby heavy soils and not too warm locations are required. Tree growth initially strong, later medium. Older crowns become broadly spherical and are loosely branched. Flowering starting medium-late and long lasting, petals large with little pink. Yield starting late (October) and irregular; with long shelf life and pressure resistance. […] The test solutions were prepared directly, i.e. without intermediate preparation of a concentrate. For each of the test substances A-1 to A-13, an aqueous solution of 0.15 mol of the test substance and 0.15 g BreakThru® OE-446 was prepared and filled up to a total of 500 g with water. Of bis-cyanamides A-14 and A-15, 0.075 mol each was filled up to 500 g in an analogous manner. These test solutions (in combination with the above 4 species/types Cx) were given the test numbers Cx-A1 to Cx-A15. […] This was done with the following evaluation scale: • Stage 0: […] Flower buds fully developed, but still closed, white petals already visible. […] Flowers fully open or, in the case of grapevine, unfolding of the flower roots (“[…]”) on the fully leafed sprouts.

[2] = tested on: Table apple, type Zabergäu-Renette (C2); experiment: Greenhouse test, cut apple branches C2 dipped in test solution, bud development stage; type: in vivo, Malus domestica; parameters: key to Bud development stage, apple branches C2: Stage 0: Buds unchanged; Stage 1: Buds slightly swollen, first green tips visible; Stage 2: strongly swollen, green buds; Stage 3: Buds before breaking open, leaf or flower root already visible; Stage 4: Flower buds fully developed, but still closed, white petals already visible. In the case of the grapevine, stage 4 was the unfolding of the first leaves; Stage 5: Flowers fully open or, in the case of grapevine, unfolding of the flower roots (“Gescheine”) on the fully leafed sprouts
Description: Greenhouse tests were conducted using cut fruit tree branches placed in water jars and maintained under controlled conditions with temperature regulation at approximately 22° C. and natural lighting. C2: Table Apple, Type […] Table apple: Malus domestica type […] first developed in 1885 as a chance seedling in Hausen a.d. Zaber/Baden-Württemberg and initially grown as 'Hausener Graue […]'. No defined storage type; requires heavy soils (loam). Tree growth initially strong with oblique upright leading branches, later medium with flat branches. Crown broad and flat-spherical with flat fruiting wood. Leaves large, broad oval and with clearly separated tip. Triploid type with late and long-lasting flowering. Yield starting early, medium high and somewhat alternate. […] The test solutions were prepared directly, i.e. without intermediate preparation of a concentrate. For each of the test substances A-1 to A-13, an aqueous solution of 0.15 mol of the test substance and 0.15 g BreakThru® OE-446 was prepared and filled up to a total of 500 g with water. Of bis-cyanamides A-14 and A-15, 0.075 mol each was filled up to 500 g in an analogous manner. These test solutions (in combination with the above 4 species/types Cx) were given the test numbers Cx-A1 to Cx-A15. […] This was done with the following evaluation scale: • Stage 0: […] Flower buds fully developed, but still closed, white petals already visible. […] Flowers fully open or, in the case of grapevine, unfolding of the flower roots (“[…]”) on the fully leafed sprouts.

[3] = tested on: Table cherry, type Burlat (C3); experiment: Greenhouse test, cut cherry branches C3 dipped in test solution, bud development stage; type: in vivo, Prunus avium; parameters: key to Bud development stage, cherry branches C3: Stage 0: Buds unchanged; Stage 1: Buds slightly swollen, first green tips visible; Stage 2: strongly swollen, green buds; Stage 3: Buds before breaking open, leaf or flower root already visible; Stage 4: Flower buds fully developed, but still closed, white petals already visible. In the case of the grapevine, stage 4 was the unfolding of the first leaves; Stage 5: Flowers fully open or, in the case of grapevine, unfolding of the flower roots (“Gescheine”) on the fully leafed sprouts
Description: Greenhouse tests were conducted using cut fruit tree branches placed in water jars and maintained under controlled conditions with temperature regulation at approximately 22° C. and natural lighting. C3: Table Cherry, Type Burlat Table cherry: Prunus avium type Bigarreau Burlat or […] is a strong-growing somewhat sparse growing sweet cherry tree with horizontal side sprouts. The type has been known since 1930 and is one of the most important types in commercial cultivation. […] Medium but regular yields identify the type as a secondary type for early and dry areas. […] The test solutions were prepared directly, i.e. without intermediate preparation of a concentrate. For each of the test substances A-1 to A-13, an aqueous solution of 0.15 mol of the test substance and 0.15 g BreakThru® OE-446 was prepared and filled up to a total of 500 g with water. Of bis-cyanamides A-14 and A-15, 0.075 mol each was filled up to 500 g in an analogous manner. These test solutions (in combination with the above 4 species/types Cx) were given the test numbers Cx-A1 to Cx-A15. […] This was done with the following evaluation scale: • Stage 0: […] Flower buds fully developed, but still closed, white petals already visible. […] Flowers fully open or, in the case of grapevine, unfolding of the flower roots (“[…]”) on the fully leafed sprouts.

[4] = tested on: Grape, type Pinot Noir (C4); experiment: Greenhouse test, cut wine sprouts C4 dipped in test solution, bud development stage; type: in vivo, Vitis vinifera subsp. vinifera; parameters: key to Bud development stage, wine sprouts C4: Stage 0: Buds unchanged; Stage 1: Buds slightly swollen, first green tips visible; Stage 2: strongly swollen, green buds; Stage 3: Buds before breaking open, leaf or flower root already visible; Stage 4: Flower buds fully developed, but still closed, white petals already visible. In the case of the grapevine, stage 4 was the unfolding of the first leaves; Stage 5: Flowers fully open or, in the case of grapevine, unfolding of the flower roots (“Gescheine”) on the fully leafed sprouts; conditions: for Dormancy-breaking effect according to the definition, wine C4: stage 4 reached or exceeded after 36 days vs negative control
Description: Greenhouse tests were conducted using cut fruit tree branches placed in water jars and maintained under controlled conditions with temperature regulation at approximately 22° C. and natural lighting. C4: Grape, Type Pinot Noir Grape: Vitis vinifera subsp. vinifera type Pinot Noir is an important and high quality red wine type that has existed for possibly 2000 years. It is cultivated all over the world because the type produces high quality red wines and has sufficient winter frost resistance. The type requires early and good areas with deep, warm, medium-heavy and fertile soils with good water supply. Pinot Noir produces regular, medium-high to high yields. However, there are a large number of clones that differ in yield, berry size and looseness. […] The test solutions were prepared directly, i.e. without intermediate preparation of a concentrate. For each of the test substances A-1 to A-13, an aqueous solution of 0.15 mol of the test substance and 0.15 g BreakThru® OE-446 was prepared and filled up to a total of 500 g with water. Of bis-cyanamides A-14 and A-15, 0.075 mol each was filled up to 500 g in an analogous manner. These test solutions (in combination with the above 4 species/types Cx) were given the test numbers Cx-A1 to Cx-A15. […] This was done with the following evaluation scale: • Stage 0: […] Flower buds fully developed, but still closed, white petals already visible. […] Flowers fully open or, in the case of grapevine, unfolding of the flower roots (“[…]”) on the fully leafed sprouts.

[5] = T1 (14 d), 0.15 mol (A-14, A-15: 0.075 mol) per 500 g solution
[6] = stage 4 reached or exceeded after 27 days vs negative control

## CCCCCC(=O)NC#N.[Na] [Example A-9, Sodium hexanoyl cyanamide]
[1]; [5]
  Bud development stage, apple branches C1: 0
[1]; T2 (16 d)
  Bud development stage, apple branches C1: 1
[1]; T3 (21 d)
  Bud development stage, apple branches C1: 1
[1]; T4 (27 d)
  Bud development stage, apple branches C1: 2
[1]; T5 (36 d)
  Bud development stage, apple branches C1: 2
[1]; T6 (56 d)
  Bud development stage, apple branches C1: 3
[2]; [5]
  Bud development stage, apple branches C2: 0
[2]; T2 (16 d)
  Bud development stage, apple branches C2: 1
[2]; T3 (21 d)
  Bud development stage, apple branches C2: 4
[2]; T4 (27 d)
  Bud development stage, apple branches C2: 5
[2]; T5 (36 d)
  Bud development stage, apple branches C2: 5
[2]; T6 (56 d)
  Bud development stage, apple branches C2: 5
[2]; [6]
  Good to very good dormancy-breaking effect, apple C2: good to very good dormancy-breaking effect
[2]; stage 4 reached or exceeded after 36 days vs negative control
  Dormancy-breaking effect according to the definition, apple C2: dormancy-breaking effect
[3]; [5]
  Bud development stage, cherry branches C3: 0
[3]; T2 (16 d)
  Bud development stage, cherry branches C3: 1
[3]; T3 (21 d)
  Bud development stage, cherry branches C3: 2
[3]; T4 (27 d)
  Bud development stage, cherry branches C3: 3
[3]; T5 (36 d)
  Bud development stage, cherry branches C3: 5
[3]; T6 (56 d)
  Bud development stage, cherry branches C3: 5
[4]; [5]
  Bud development stage, wine sprouts C4: 0
[4]; T2 (16 d)
  Bud development stage, wine sprouts C4: 0
[4]; T3 (21 d)
  Bud development stage, wine sprouts C4: 0
[4]; T4 (27 d)
  Bud development stage, wine sprouts C4: 2
[4]; T5 (36 d)
  Bud development stage, wine sprouts C4: 5
[4]; T6 (56 d)
  Bud development stage, wine sprouts C4: 5
[4]
  Dormancy-breaking effect according to the definition, wine C4: dormancy-breaking effect

## CC(C)(C)C(=O)NC#N.[Na] [Example A-8, Sodium pivaloyl cyanamide]
[1]; [5]
  Bud development stage, apple branches C1: 0
[1]; T2 (16 d)
  Bud development stage, apple branches C1: 0
[1]; T3 (21 d)
  Bud development stage, apple branches C1: 2
[1]; T4 (27 d)
  Bud development stage, apple branches C1: 4
[1]; T5 (36 d)
  Bud development stage, apple branches C1: 4
[1]; T6 (56 d)
  Bud development stage, apple branches C1: 4
[1]; [6]
  Good to very good dormancy-breaking effect, apple C1: good to very good dormancy-breaking effect
[1]
  Dormancy-breaking effect according to the definition, apple C1: dormancy-breaking effect
[2]; [5]
  Bud development stage, apple branches C2: 0
[2]; T2 (16 d)
  Bud development stage, apple branches C2: 0
[2]; T3 (21 d)
  Bud development stage, apple branches C2: 0
[2]; T4 (27 d)
  Bud development stage, apple branches C2: 1
[2]; T5 (36 d)
  Bud development stage, apple branches C2: 2
[2]; T6 (56 d)
  Bud development stage, apple branches C2: 4
[3]; [5]
  Bud development stage, cherry branches C3: 0
[3]; T2 (16 d)
  Bud development stage, cherry branches C3: 0
[3]; T3 (21 d)
  Bud development stage, cherry branches C3: 1
[3]; T4 (27 d)
  Bud development stage, cherry branches C3: 2
[3]; T5 (36 d)
  Bud development stage, cherry branches C3: 4
[3]; T6 (56 d)
  Bud development stage, cherry branches C3: 5
[4]; [5]
  Bud development stage, wine sprouts C4: 0
[4]; T2 (16 d)
  Bud development stage, wine sprouts C4: 0
[4]; T3 (21 d)
  Bud development stage, wine sprouts C4: 0
[4]; T4 (27 d)
  Bud development stage, wine sprouts C4: 1
[4]; T5 (36 d)
  Bud development stage, wine sprouts C4: 4
[4]; T6 (56 d)
  Bud development stage, wine sprouts C4: 5
[4]
  Dormancy-breaking effect according to the definition, wine C4: dormancy-breaking effect

## N#CNC(=O)CCC(=O)NC#N.[Na].[Na] [Example A-14, Disodium-(3-(cyano-amidocarbonyl)-propionyl-cyanamide)]
[1]; [5]
  Bud development stage, apple branches C1: 1
[1]; T2 (16 d)
  Bud development stage, apple branches C1: 1
[1]; T3 (21 d)
  Bud development stage, apple branches C1: 2
[1]; T4 (27 d)
  Bud development stage, apple branches C1: 3
[1]; T5 (36 d)
  Bud development stage, apple branches C1: 5
[1]; T6 (56 d)
  Bud development stage, apple branches C1: 5
[1]
  Dormancy-breaking effect according to the definition, apple C1: dormancy-breaking effect
[2]; [5]
  Bud development stage, apple branches C2: 0
[2]; T2 (16 d)
  Bud development stage, apple branches C2: 0
[2]; T3 (21 d)
  Bud development stage, apple branches C2: 0
[2]; T4 (27 d)
  Bud development stage, apple branches C2: 1
[2]; T5 (36 d)
  Bud development stage, apple branches C2: 3
[2]; T6 (56 d)
  Bud development stage, apple branches C2: 4
[3]; [5]
  Bud development stage, cherry branches C3: 0
[3]; T2 (16 d)
  Bud development stage, cherry branches C3: 1
[3]; T3 (21 d)
  Bud development stage, cherry branches C3: 4
[3]; T4 (27 d)
  Bud development stage, cherry branches C3: 5
[3]; T5 (36 d)
  Bud development stage, cherry branches C3: 5
[3]; T6 (56 d)
  Bud development stage, cherry branches C3: 5
[3]; stage 4 reached or exceeded after 21 days vs negative control
  Good to very good dormancy-breaking effect, cherry C3: good to very good dormancy-breaking effect
[3]; [6]
  Dormancy-breaking effect according to the definition, cherry C3: dormancy-breaking effect
[4]; [5]
  Bud development stage, wine sprouts C4: 0
[4]; T2 (16 d)
  Bud development stage, wine sprouts C4: 0
[4]; T3 (21 d)
  Bud development stage, wine sprouts C4: 0
[4]; T4 (27 d)
  Bud development stage, wine sprouts C4: 2
[4]; T5 (36 d)
  Bud development stage, wine sprouts C4: 4
[4]; T6 (56 d)
  Bud development stage, wine sprouts C4: 4
[4]
  Dormancy-breaking effect according to the definition, wine C4: dormancy-breaking effect
